The source of these data is US8828974B2, “Substituted propane phosphinic acid derivatives” (Aventis Pharmaceuticals Inc., priority 2004, dated 2014).

A short description of data set [1]: Relative bioavailability of parent compound 1 in plasma and brain after oral gavage in mice (Example 39). The data set is classed as in vivo, Male CD1 mice. The note with it: mouse brain samples 2, 4 and 7 hrs post-dose, LC/MS/MS. As for the experimental part: Animals: Male CD1 mice (Charles River) weighing about 25 g—with free access to food and water.
Dose Groups: The compounds of this invention were administered to the test animals at a dose, which is molar equivalent to 10 mg/kg of the parent compound 1, ((R)-3-amino-2-hydroxy-propyl)-cyclohexylmethyl-phosphinic acid. Each of the test compounds was formulated at this dose level to yield a dose volume of 10 mL/kg and administered by oral gavage to a group of three mice per time point in each study group.
Formulations: The compounds of this invention were dissolved in vehicle of 0.2% Tween 80 and 0.5% methylcellulose (MC) at a concentration of about 1 mg/mL.
Samples: The blood samples (for plasma) were collected at the following time points: 5, 15 30 and 45 min […]; and 1, 2, 3, 4, 5, and 7 hrs post-dose. Brains were collected at 2, 4 and 7 hrs post-dose
Blood Handling: The blood samples were added to tubes containing 20 μL of a stock 10 mg/ml solution of sodium fluoride. The blood tubes were then stored in a refrigerator at approximately about 4° C. The volume of blood in each of these samples was about 0.4 mL. The samples were then centrifuged in a refrigerated centrifuge. […]
Bioanalysis: All plasma and brain samples were then analyzed for concentrations of the test compound as well as the parent compound 1, ((R)-3-amino-2-hydroxy-propyl)-cyclohexylmethyl-phosphinic acid by LC/MS/MS. […]

The subject of data set [2] is Male Wistar rats. Nature of the data set: Chronic Mild Stress Model (CMS), sucrose consumption. The data set is classed as in vivo, rat. The note with it: 3 and 30 mg/kg orally, daily for five weeks; imipramine 10 mg/kg ip. As for the experimental part:
The following CMS study is performed using the parent compound 1 (hereafter “compound 1”) in comparison to known anti-depressant compound imipramine.
Male Wistar rats are brought into the laboratory two months before the start of the experiment at which time they weighed approximately 300 grams. Except as described below, the animals are singly housed, with food and water freely available, and maintained on a 12 hour light/dark cycle (lights on at 8 AM) at a temperature of about 22° C.
The animals are first trained to consume a 1% sucrose solution; training consists of eight 1 hour baseline tests in which sucrose is presented, in the home cage, following 14 hours food and water deprivation; intake is measured by weighing pre-weighed bottles containing the sucrose solution at the end of the test. Subsequently, sucrose consumption is monitored, under similar conditions, at weekly intervals throughout the whole experiment.
On the basis of their sucrose intakes in the final baseline test, the animals are divided into two matched groups. One group of animals is subjected to a chronic mild stress procedure for a period of 9 consecutive weeks. […]
Results are analyzed by multiple analysis of variance, followed by Fisher's LSD test for post hoc comparisons of means.

Consider `NC[C@@H](O)CP(=O)(O)CC1CCCCC1` [compound 1, ((R)-3-amino-2-hydroxy-propyl)-cyclohexylmethyl-phosphinic acid], for which the “concentration of the parent compound 1 in brain” value in data set [1] is given as “proportional to the concentration of the parent compound in plasma”. Besides, the “activity in CMS (sucrose intake) compared with imipramine” value in data set [2] was “equal to that of imipramine”.
